Results: US20220257557A1, “PHARMACEUTICAL COMPOSITION FOR PREVENTING OR TREATING NEUROLOGICAL DISEASES” (GLACEUM INC., priority 2019, published 2022)

Tests used:
PON2 mRNA = assay: Relative expression level of PON2 mRNA in liver of DIO mice (real-time PCR); type: in vivo, C57BL/6J DIO mice; settings: 100 mg/kg orally once daily for 6 weeks, 60% fat diet, FIG. 1a
Protocol: (§1) 14-Week-old C57BL/6J DIO (Diet Induced Obesity) mice (The Jackson Laboratory, USA) were purchased. The normal control group was fed a 10% fat diet for 3 weeks, and the DIO control group was fed a 60% fat diet for 3 weeks. In addition, the Formula III-1 compound-administered group was fed a 60% fat diet for 3 weeks, and then 100 mg/kg of the compound of Formula III-1 was orally administered thereto once daily for 6 weeks.
(§2) The mice of the normal control group, the DIO control group and the Formula III-1 compound-administered group were euthanized, and the liver tissues were extracted therefrom, washed with a PBS solution containing PIC (protease inhibitor cocktail), sectioned to a size of 0.2 to 0.5 g, and stored at −196° C. until the experiment.
The following experiment was conducted using the liver tissue sections from the normal control group, the DIO control group and the Formula III-1 compound-administered group.
The relative expression level of PON2 mRNA was analyzed using real-time PCR. Specifically, trizol (Invitrogen, Carlsbad, Calif., USA) was added to the liver tissue which was then minced using a homogenizer, and total RNA was extracted therefrom. […]

PON2 (Paraoxonase 2) = assay: Relative expression level of PON2 in liver of DIO mice (Western blot, relative to actin); type: in vivo, C57BL/6J DIO mice; settings: 100 mg/kg orally once daily for 6 weeks, 60% fat diet
Protocol: as §1
as §2, with “experiment. […]” for “experiment.”
A lysis buffer (CelLytic™ Cell Lysis Reagent, Sigma-Aldrich Corp.) containing a protease inhibitor cocktail was added to the liver tissue which was then minced using a homogenizer, incubated at 0° C. for 30 minutes, and centrifuged at 14,000 rpm for 15 minutes at 4° C. to obtain the supernatant. The protein concentration was quantified using the Bradford method, and then the same amount of protein was separated by electrophoresis on 10% SDS-PAGE and transferred to a polyvinylidene difluoride membrane (PVDF; Pall Corporation, USA) in glycine-methanol buffer. […]

SH-SY5Y cells = assay: Reactive oxygen species generation (DCF-DA) after MPP+; type: cell-based, Human; settings: 1 mM MPP+ 24 h, then 0.0001-1 μM compound 24 h, FIG. 4
Protocol: Human neuronal SH-SY5Y cells were cultured in a 1:1 DMEM/F12 medium containing 10% FBS (fetal bovine serum) at 37° C. under 5% carbon dioxide and 95% air. The cultured cells were transferred to a 96-well cell culture plate at a density of 2*10^4 cells/well and cultured for 24 hours. Thereafter, after replacement with serum-restricted medium (1:1 DMEM/F12 medium containing 0.5% FBS), the cells were cultured for 16 hours. Then, the cultured cells were treated with 1 mM MPP+ (1-methyl-4-phenylpyridinium) and cultured for 24 hours, thus inducing mitochondrial dysfunction in the cells. […]
Based on the principle that 2′,7′-dichlorofluorescein diacetate (DCF-DA) is oxidized to fluorescent DCF by reaction with reactive oxygen species, the level of reactive oxygen species generation was measured. […] Then, the fluorescence intensity of DCF at an excitation wavelength of 485 nm and an emission wavelength of 535 nm and the fluorescence intensity of bisbenzimide at an excitation wavelength of 335 nm and an emission wavelength of 460 nm were measured using a fluorescence analyzer to determine the level of reactive oxygen species generation. […]
The concentration of DCF determined from the fluorescence intensity was expressed as a percentage of the normal control.

BV2 cells = assay: iNOS and COX-2 expression after LPS (Western blot); type: cell-based; settings: 3 h pretreatment (Table 3 amounts), LPS 1 μg/ml 24 h
Method in brief: (§3)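 RAW264.7 or BV2 cells (5×10^5 cells/well) in DMEM with 10% FBS were pretreated with compound, then stimulated with 1 μg/ml LPS for 24 h. iNOS and COX-2 expression by Western blot; NO and PGE2 production measured. Compound toxicity checked by MTT.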

RAW264.7 cells = assay: iNOS and COX-2 expression after LPS (Western blot); type: cell-based; settings: 3 h pretreatment (Table 3 amounts), LPS 1 μg/ml 24 h
Method in brief: as §3

Structure (SMILES): CCOc1ccc(C2COc3c(ccc4c3CCC(C)(C)O4)C2)c(O)c1 (centres unmarked) [Formula III-1, 2-(8,8-dimethyl-2,3,4,8,9,10-hexahydropyrano[2,3-f]chromen-3-yl)-5-ethoxyphenol]
- expression level of PON2 mRNA compared with normal control group (PON2 mRNA): higher
- expression level of PON2 compared with DIO control group (PON2 (Paraoxonase 2); FIG. 1): higher
- expression level of PON2 compared with normal control group (PON2 (Paraoxonase 2); FIG. 1b): higher
- level of intracellular reactive oxygen species generation (DCF) (SH-SY5Y cells): decreased
- expression level of COX-2 (BV2 cells): concentration-dependently decreased
- expression level of iNOS (BV2 cells): concentration-dependently decreased
- expression level of COX-2 (RAW264.7 cells): concentration-dependently decreased
- expression level of iNOS (RAW264.7 cells): concentration-dependently decreased
